Assay in all cases: 4-nitrophenol release at […] nm, initial rates
Format in all cases: biochemical
Holding throughout (conditions): 5 mM EPPS pH 8.0, 30 °C; ester 0–0.04 mM

Assay [1] deals with WP_089515094.1.
The test system of assay [2] is WP_014900537.1.
Assay [3] has as its system WP_026140314.1.

The Km is the concentration of substrate that gives half-maximal velocity. Take `CCC(=O)Oc1ccc([N+](=O)[O-])cc1` [p-NP propionate]: the Km is 23.5 ± 3.5 µM in assay [1], 16.9 ± 1.6 µM in assay [2] and 14.5 ± 1.1 µM in assay [3].

The values are drawn from paper PMC9599548, “EP-Pred: A Machine Learning Tool for Bioprospecting Promiscuous Ester Hydrolases” (Biomolecules, 2022).
